Patent publication US20210382068A1, “HLA SINGLE ALLELE LINES” (priority 2018, published 2021)

Tests used:
[1] = test system: advanced hormone refractory prostate cancer patients; settings: cited from earlier work
[2] = more than 25 clinical trials; cited from earlier work
[3] = test system: ovarian carcinoma patients; settings: cited from earlier work
healthy human volunteers = settings: 8 subjects with one single s.c. administration versus 4 subjects receiving placebo; cited from earlier work
[4] = test system: patient tumor cell lines (MEL, GBM, ccRCC); assay: IFNγ stimulation of patient tumor cell lines, HLA-bound peptides by IP/MS; assay type: cell-based, human; settings: IFNγ-matched samples, 2000 Unit/ml IFNg for 3 days

C[C@]12CC[C@@H]3c4ccc(OC(=O)N(CCCl)CCCl)cc4CC[C@H]3[C@@H]1CC[C@@H]2O [estramustine]
patients with >50% decrease in serum prostate specific antigen (PSA) [1]: 54%

Polyinosinic-Polycytidylic Acid-poly-L-lysine Carboxymethylcellulose [poly-ICLC]
toxicity profile [2]: relatively benign toxicity profile
generation of NY-ESO-1-specific CD4+ and CD8+ T-cell and antibody responses ([3]; 1.4 mg poly-ICLC and Montanide added, compared to OLP alone or OLP and Montanide): markedly enhanced
patients showing induction of CD4+ and CD8+ T cell, as well as antibody responses to the peptide ([3]; poly-ICLC in combination with NY-ESO-1 peptide vaccine, in addition to Montanide, phase 1): > 90%
differential expression of genes versus placebo (healthy human volunteers): up to 212 genes

B1: IFNγ: interferon gamma (Peprotech) used to stimulate cultured tumor cells (protein, UniProt P01579 24-161, looked up)
Interferon gamma: QDPYVKEAENLKKYFNAGHSDVADNGTLFLGILKNWKEESDRKIMQSQIVSFYFKLFKNFKDDQSIQKSVETIKEDMNVKFFNSNKKKRDDFEKLTNYSVTDLNVQRKAIHELIQVMAELSPAAKTGKRKRSQMLFRG
increase in peptides derived from IFNγ-response genes post stimulation [4]: 2.4-5.6%
